This note sets out measurements from ChEMBL document CHEMBL4393659, “Insights into the chemistry and therapeutic potential of furanones: A versatile pharmacophore” (Eur J Med Chem, 2019).

In brackets after ≈: the same amount, converted by molar mass.

In data set [1] the target is Cyclin-dependent kinase 5/CDK5 activator 1 (Homo sapiens, UniProt Q00535). As to the kind of experiment: Inhibition of CDK5/p25 (unknown origin). Format: protein-complex assay.
Data set [2] concerns the target Glycogen synthase kinase-3 (Homo sapiens, UniProt P49840+P49841). Briefly: Inhibition of GSK3alpha/beta (unknown origin). Format: protein assay.
Data set [3] addresses Cyclin-dependent kinase 1/cyclin B1 (Homo sapiens, UniProt P06493). Briefly: Inhibition of CDK1/cyclinB (unknown origin). Format: protein-complex assay.
The test system of data set [4] is Rattus norvegicus. Briefly: Antiinflammatory activity in rat assessed as inhibition of carrageenan-induced paw edema at 10 mg/kg , po and measured after 4 hrs of carrageenan addition relative to control. Format: functional. On the technique in general: The carrageenan paw model is a standard test of acute inflammation.
Data set [5] relates to Mus musculus. As to the kind of experiment: Analgesic activity in albino mouse assessed as inhibition of acetic acid induced writhing at 10 mg/kg , po. Format: functional.
The test system of data set [6] is Globisporangium ultimum. As to the kind of experiment: Antifungal activity against Pythium ultimum assessed as reduction in fungal cell growth incubated for 48 hrs by broth dilution method. Format: functional.
Data set [7] has as its system Diaphania hyalinata. Briefly: Insecticidal activity against Diaphania hyalinata assessed as reduction in living insects observed after 48 hrs. Format: functional.
Data set [8] concerns Escherichia coli. As to the kind of experiment: Inhibition of swarming motility of Escherichia coli at 13 ug/cm2. Format: functional.
Data set [9] has as its system Bacillus subtilis. Briefly: Antibacterial activity against Bacillus subtilis assessed as cell viability at 40 ug/ml incubated for 3 days by confocal microscopy. Format: functional.
In data set [10] the test system is Bacillus subtilis. As to the kind of experiment: Antibiofilm activity in Bacillus subtilis assessed as reduction in biofilm thickness at 40 ug/ml incubated for 3 days by confocal microscopy. Format: functional. On the set-up: scale not given: the % may be the effect or the level left.
The test system of data set [11] is Berkeleyomyces basicola. As to the kind of experiment: Antifungal activity against Thielaviopsis basicola assessed as reduction in fungal spore germination measured between 4 to 24 hrs by inverted microscopy. Format: functional. Particulars: read-out: ED50 (the source's name).
Data set [12] concerns Fusarium oxysporum. As to the kind of experiment: Antifungal activity against Fusarium oxysporum assessed as reduction in fungal spore germination measured between 4 to 24 hrs by inverted microscopy. Particulars: read-out: ED50 (the source's name). Format: functional.
For data set [13], the system named is Fusarium solani. Briefly: Antifungal activity against Fusarium solani assessed as reduction in fungal spore germination measured between 4 to 24 hrs by inverted microscopy. Particulars: read-out: ED50 (the source's name). Format: functional.
Data set [14] deals with Globisporangium ultimum. Briefly: Antifungal activity against Pythium ultimum assessed as reduction in fungal spore germination measured between 4 to 24 hrs by inverted microscopy. The conditions noted are these: read-out: ED50 (the source's name). Format: functional.
Data set [15] relates to Rhizoctonia solani. Briefly: Antifungal activity against Rhizoctonia solani assessed as reduction in fungal germ tube growth measured between 4 to 24 hrs by inverted microscopy. Particulars: read-out: ED50 (the source's name). Format: functional.
For data set [16], the system named is Rattus norvegicus. Briefly: Antiinflammatory activity in Sprague-Dawley rat assessed as inhibition of carrageenan-induced paw edema at 3 mg/kg , po incubated for 1 hr followed by carrageenan addition and measured after 4 hrs relative to control. Format: functional.
In data set [17] the test system is Rattus norvegicus. Briefly: Antiinflammatory activity in Sprague-Dawley rat assessed as inhibition of carrageenan-induced paw edema at 3 mg/kg , po relative to control. Format: functional.
Data set [18] is filed under the species Rattus norvegicus. As to the kind of experiment: Antiarthritic activity in adjuvant-induced Sprague-Dawley rat. Format: functional.
A short description of data set [19]: Ulcerogenicity in Sprague-Dawley rat assessed as gastric lesions at 50 mg/kg , po bid measured after 4 hrs. Format: toxicity, organism-based. Particulars: in vivo.
For data set [20], the target named is Prostaglandin G/H synthase 2 (Mus musculus, UniProt Q05769). Briefly: Inhibition of mouse COX-2 in LPS-induced mouse peritoneal macrophage assessed as reduction in PGE2 release incubated for 2 hrs by ELISA. Background: An ELISA detects its analyte on a solid surface through an enzyme-linked reagent.
Sequence of Prostaglandin G/H synthase 2 (Mus musculus, UniProt Q05769) (Q05769 whole entry): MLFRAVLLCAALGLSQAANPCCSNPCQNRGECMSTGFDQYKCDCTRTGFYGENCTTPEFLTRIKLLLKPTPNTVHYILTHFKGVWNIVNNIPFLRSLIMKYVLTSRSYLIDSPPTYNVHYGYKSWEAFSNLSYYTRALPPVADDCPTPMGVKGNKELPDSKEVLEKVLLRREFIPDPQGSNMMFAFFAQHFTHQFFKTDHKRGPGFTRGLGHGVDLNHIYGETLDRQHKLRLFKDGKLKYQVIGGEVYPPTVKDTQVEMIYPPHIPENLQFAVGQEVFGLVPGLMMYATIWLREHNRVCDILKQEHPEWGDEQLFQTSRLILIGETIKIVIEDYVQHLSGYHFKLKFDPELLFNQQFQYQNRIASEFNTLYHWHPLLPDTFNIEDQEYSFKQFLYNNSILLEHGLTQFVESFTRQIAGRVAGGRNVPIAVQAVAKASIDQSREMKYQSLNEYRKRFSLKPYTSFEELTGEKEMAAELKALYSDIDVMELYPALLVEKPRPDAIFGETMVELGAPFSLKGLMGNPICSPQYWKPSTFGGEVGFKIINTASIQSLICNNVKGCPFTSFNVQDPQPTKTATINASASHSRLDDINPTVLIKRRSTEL
Data set [21] can be described thus: Ulcerogenicity in Wistar rat assessed as gastric lesions by measuring ulcer severity index at 60 mg/kg , po measured after 17 hrs relative to control. Format: toxicity, organism-based. The conditions noted are these: in vivo.
Data set [22] relates to Lichtheimia corymbifera. As to the kind of experiment: Antifungal activity against Absidia corymbifera 272 assessed as reduction in fungal cell viability measured after 24 and 72 hrs by photometry. Format: functional.
In data set [23] the test system is Lichtheimia corymbifera. As to the kind of experiment: Antifungal activity against Absidia corymbifera assessed as reduction in fungal cell viability by broth dilution method. Format: functional. For orientation: In broth dilution the organism is exposed to a series of concentrations in liquid medium.
For data set [24], the system named is Trichosporon beigelii. As to the kind of experiment: Antifungal activity against Trichosporon beigelii 1188 assessed as reduction in fungal cell viability measured after 24 and 72 hrs by photometry. Format: functional.
Data set [25] has as its system Candida albicans. As to the kind of experiment: Antifungal activity against Candida albicans ATCC 44859 assessed as reduction in fungal cell viability measured after 24 and 48 hrs by photometry. Format: functional.
Data set [26] relates to Candida tropicalis. As to the kind of experiment: Antifungal activity against Candida tropicalis 156 assessed as reduction in fungal cell viability measured after 24 and 72 hrs by photometry. Format: functional.
In data set [27] the test system is Aspergillus fumigatus. As to the kind of experiment: Antifungal activity against Aspergillus fumigatus assessed as reduction in fungal cell viability by broth dilution method. Format: functional.
The test system of data set [28] is Pichia kudriavzevii. As to the kind of experiment: Antifungal activity against Candida krusei E28 assessed as reduction in fungal cell viability measured after 24 and 48 hrs by photometry. Format: functional.
Data set [29] concerns Trichophyton mentagrophytes. As to the kind of experiment: Antifungal activity against Trichophyton mentagrophytes 445 assessed as reduction in fungal cell viability measured after 72 and 120 hrs by photometry. Format: functional.
Data set [30] relates to Aspergillus fumigatus. Briefly: Antifungal activity against Aspergillus fumigatus 231 assessed as reduction in fungal cell viability measured after 24 and 72 hrs by photometry. Format: functional.
Data set [31] has as its system Nakaseomyces glabratus. As to the kind of experiment: Antifungal activity against Candida glabrata 20/I assessed as reduction in fungal cell viability measured after 24 and 72 hrs by photometry. Format: functional.
Data set [32] can be described thus: Antioxidant activity assessed as DPPH radical scavenging activity measured for each 5 mins for 3 hrs. Format: functional.
For data set [33], the system named is Liver. Briefly: Antioxidant activity in rat liver microsomes assessed as reduction in ferrous salt/ascorbic acid-induced lipid peroxidation of membrane lipids by measuring malondialdehyde level after 90 mins by spectrophotometry. Format: functional, Microsome. The conditions noted are these: 1.5 h.
Data set [34] is described as follows: Antioxidant activity assessed as superoxide anion scavenging activity at pH 7.4 phosphate buffer incubated for 5 mins by NBT assay. Format: functional.
Data set [35] concerns the target Tyrosinase (Homo sapiens, UniProt P14679). Briefly: Inhibition of tyrosinase (unknown origin) assessed as reduction in melanin formation.
Data set [36] deals with Mus musculus. As to the kind of experiment: Antiinflammatory activity in carrageenan-induced C57Bl/6 mouse model of inflammation assessed as inhibition of PGE2 accumulation in air pouch at 0.1 to 10 mg/kg , po pretreated with carrageenan for 20 hrs and followed by compound administration and measured after 4 hrs. Format: functional. Particulars: C57B1/6, po.
Data set [37] has as its target Prostaglandin G/H synthase 2 (Cavia porcellus, UniProt P70682). As to the kind of experiment: Inhibition of COX2 in guinea pig blood assessed as reduction of LPS-induced PGE2 accumulation at 10 to 10000 nM preincubated with LPS followed by compound addition and incubated for 6 or 24 hrs by EIA method. Format: tissue-based.
In data set [38] the target is Prostaglandin G/H synthase 2 (Oryctolagus cuniculus, UniProt O02768). Briefly: Inhibition of COX2 in rabbit whole blood assessed as reduction of LPS-induced PGE2 accumulation at 10 to 10000 nM preincubated with LPS followed by compound addition and incubated for 6 or 24 hrs by EIA method. Format: tissue-based.
Sequence of Prostaglandin G/H synthase 2 (Oryctolagus cuniculus, UniProt O02768) (O02768 whole entry): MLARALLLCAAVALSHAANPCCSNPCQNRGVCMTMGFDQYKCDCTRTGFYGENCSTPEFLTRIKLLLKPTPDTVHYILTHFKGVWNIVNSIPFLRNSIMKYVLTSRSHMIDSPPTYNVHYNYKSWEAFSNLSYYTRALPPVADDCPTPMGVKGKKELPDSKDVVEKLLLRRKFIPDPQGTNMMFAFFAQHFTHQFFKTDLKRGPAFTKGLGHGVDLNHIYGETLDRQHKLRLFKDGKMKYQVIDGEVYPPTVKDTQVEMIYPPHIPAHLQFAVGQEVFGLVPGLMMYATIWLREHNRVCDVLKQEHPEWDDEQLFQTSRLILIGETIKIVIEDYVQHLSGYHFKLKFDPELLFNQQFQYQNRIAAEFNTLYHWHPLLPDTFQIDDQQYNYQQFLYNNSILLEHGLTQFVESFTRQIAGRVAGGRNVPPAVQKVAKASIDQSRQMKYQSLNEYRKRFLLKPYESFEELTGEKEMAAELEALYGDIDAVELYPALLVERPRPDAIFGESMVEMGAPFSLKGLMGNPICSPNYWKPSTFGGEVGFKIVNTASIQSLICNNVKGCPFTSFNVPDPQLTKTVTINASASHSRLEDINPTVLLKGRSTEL
In data set [39] the target is Phospholipase A2 (Apis mellifera, UniProt P00630). As to the kind of experiment: Inhibition of bee venom phospholipase A2 preincubated for 1 hr followed by addition of phosphotidylcholine and 1-palmitoyl-2-(1-14C) palmitoyl further incubated for 10 mins and measured after 15 secs by scintillation counting method.
Sequence of Phospholipase A2 (P00630 whole entry): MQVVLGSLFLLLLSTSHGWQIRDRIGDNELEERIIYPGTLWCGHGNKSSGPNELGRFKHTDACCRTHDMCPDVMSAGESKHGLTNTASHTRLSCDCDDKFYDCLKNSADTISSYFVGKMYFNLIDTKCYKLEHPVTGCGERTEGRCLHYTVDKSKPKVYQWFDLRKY

Sequence of Tyrosinase (P14679 whole entry): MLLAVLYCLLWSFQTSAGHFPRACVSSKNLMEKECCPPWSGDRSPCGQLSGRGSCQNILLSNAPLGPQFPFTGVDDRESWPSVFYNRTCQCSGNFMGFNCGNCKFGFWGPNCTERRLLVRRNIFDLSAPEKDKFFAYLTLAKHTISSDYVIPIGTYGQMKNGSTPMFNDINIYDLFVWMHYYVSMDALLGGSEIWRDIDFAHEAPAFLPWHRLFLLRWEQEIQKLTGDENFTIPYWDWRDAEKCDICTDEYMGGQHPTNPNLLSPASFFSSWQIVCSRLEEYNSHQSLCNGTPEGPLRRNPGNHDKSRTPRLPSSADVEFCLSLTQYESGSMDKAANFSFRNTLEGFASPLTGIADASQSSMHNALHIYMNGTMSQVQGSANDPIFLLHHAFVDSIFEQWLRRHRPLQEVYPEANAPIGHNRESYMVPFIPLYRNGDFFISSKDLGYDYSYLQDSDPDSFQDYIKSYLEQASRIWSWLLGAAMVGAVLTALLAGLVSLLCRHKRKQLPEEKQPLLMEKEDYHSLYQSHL
Sequence of Cyclin-dependent kinase 1/cyclin B1 (P06493 whole entry): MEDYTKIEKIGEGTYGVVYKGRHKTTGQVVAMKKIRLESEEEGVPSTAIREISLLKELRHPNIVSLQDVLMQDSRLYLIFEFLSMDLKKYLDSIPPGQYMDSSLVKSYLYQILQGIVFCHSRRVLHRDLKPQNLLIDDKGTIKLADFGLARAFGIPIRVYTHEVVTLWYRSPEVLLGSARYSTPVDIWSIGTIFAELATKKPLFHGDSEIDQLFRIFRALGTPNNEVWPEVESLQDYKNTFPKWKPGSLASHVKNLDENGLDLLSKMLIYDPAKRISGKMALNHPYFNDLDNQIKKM
Sequence of Cyclin-dependent kinase 1/cyclin B1 (P14635 whole entry, further chain): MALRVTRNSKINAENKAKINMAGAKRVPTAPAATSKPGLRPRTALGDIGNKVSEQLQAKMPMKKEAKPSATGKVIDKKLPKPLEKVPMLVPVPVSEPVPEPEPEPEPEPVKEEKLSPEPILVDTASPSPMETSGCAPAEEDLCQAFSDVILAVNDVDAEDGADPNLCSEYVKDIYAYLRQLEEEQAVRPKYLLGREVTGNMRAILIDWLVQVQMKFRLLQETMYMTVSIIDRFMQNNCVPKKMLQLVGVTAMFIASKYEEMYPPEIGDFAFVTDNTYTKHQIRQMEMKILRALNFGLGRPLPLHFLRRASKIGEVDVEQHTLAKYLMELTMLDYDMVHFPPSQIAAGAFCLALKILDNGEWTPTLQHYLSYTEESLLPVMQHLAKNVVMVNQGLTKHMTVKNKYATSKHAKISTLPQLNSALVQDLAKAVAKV
Sequence of Cyclin-dependent kinase 5/CDK5 activator 1 (Q00535 whole entry): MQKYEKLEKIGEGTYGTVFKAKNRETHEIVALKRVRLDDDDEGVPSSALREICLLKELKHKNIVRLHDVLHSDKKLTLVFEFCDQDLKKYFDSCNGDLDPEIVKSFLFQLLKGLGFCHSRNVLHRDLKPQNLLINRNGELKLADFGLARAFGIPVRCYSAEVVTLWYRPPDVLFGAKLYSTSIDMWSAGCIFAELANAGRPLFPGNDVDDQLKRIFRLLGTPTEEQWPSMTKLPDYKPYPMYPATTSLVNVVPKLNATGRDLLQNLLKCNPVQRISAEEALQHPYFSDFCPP
Sequence of Cyclin-dependent kinase 5/CDK5 activator 1 (Q15078 whole entry, further chain): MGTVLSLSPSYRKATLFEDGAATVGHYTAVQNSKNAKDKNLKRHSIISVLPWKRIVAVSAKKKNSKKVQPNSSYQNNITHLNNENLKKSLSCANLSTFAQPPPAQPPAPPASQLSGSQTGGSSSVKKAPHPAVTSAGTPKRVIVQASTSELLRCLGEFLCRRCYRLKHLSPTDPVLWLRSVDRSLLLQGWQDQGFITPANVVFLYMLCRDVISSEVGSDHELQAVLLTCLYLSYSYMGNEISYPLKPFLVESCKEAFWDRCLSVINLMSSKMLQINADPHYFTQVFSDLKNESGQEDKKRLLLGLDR
Sequence of Prostaglandin G/H synthase 2 (Cavia porcellus, UniProt P70682) (P70682 whole entry): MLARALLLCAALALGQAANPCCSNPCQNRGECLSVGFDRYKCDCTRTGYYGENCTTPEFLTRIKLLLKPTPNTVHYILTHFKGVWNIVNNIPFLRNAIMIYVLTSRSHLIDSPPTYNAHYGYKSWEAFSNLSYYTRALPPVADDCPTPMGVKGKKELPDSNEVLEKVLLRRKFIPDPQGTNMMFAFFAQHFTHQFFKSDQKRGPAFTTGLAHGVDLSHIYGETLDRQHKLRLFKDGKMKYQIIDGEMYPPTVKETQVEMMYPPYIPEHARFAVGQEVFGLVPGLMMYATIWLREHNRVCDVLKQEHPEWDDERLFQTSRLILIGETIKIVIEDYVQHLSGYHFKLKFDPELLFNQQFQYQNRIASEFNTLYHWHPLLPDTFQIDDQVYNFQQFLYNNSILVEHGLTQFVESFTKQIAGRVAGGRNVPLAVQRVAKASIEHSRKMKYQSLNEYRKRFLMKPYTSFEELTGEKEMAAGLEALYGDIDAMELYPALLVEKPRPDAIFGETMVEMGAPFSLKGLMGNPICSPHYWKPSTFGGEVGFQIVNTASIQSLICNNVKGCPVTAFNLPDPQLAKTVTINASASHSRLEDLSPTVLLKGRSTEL

By IC50 is commonly meant the point on the concentration scale where inhibition reaches its midpoint. Turning to `COc1ccc(C2OC(=O)C(O)=C2I)cc1OC` (centres undefined), the IC50 in data set [1], in data set [2] and in [3] was 10 µM throughout.
A word on the inhibition in vivo: it is the share of the control response that was lost under treatment. With `O=C(O)Cc1ccccc1Nc1c(Cl)cccc1Cl` [DICLOFENAC], the results for the inhibition in vivo at 10 mg/kg in data set [4] and in [5] were 78.6% and 67.7%, respectively.
The MIC is the least concentration at which growth counts as inhibited. Turning to `Cc1cc(O)c2c(c1)C(c1c(O)cccc1O)OC2=O` (centres undefined), in data set [6], the MIC was found to be 40 µg/mL (≈ 147 µM).
As to `CC(C)O[C@@H]1OC(=O)[C@@H]2[C@H]1[C@@H]1C=C[C@H]2C1`, in data set [7], the LD50 was found to be 44.51 µM/g.
Regarding `CCCCC1=C(Br)/C(=C/Br)OC1=O`, the “inhibition (INH)” value in data set [8] is listed as 100%. Further, the Activity in data set [9] came to 63%; in data set [10], 25%.
For the compound `CCCC/C=C\C1=CC(C)OC1=O` (centres undefined), the EC50 was determined as 25 µg/mL (≈ 139 µM) in [11]; 56 µg/mL (≈ 311 µM) in [12]; 54 µg/mL (≈ 300 µM) in [13]; 45 µg/mL (≈ 250 µM) in data set [14]; 61 µg/mL (≈ 338 µM) in [15].
The ED50 is the dose at which the effect has come halfway, by size or by number of responders. For `CC1(C)OC(c2ccc(S(C)(=O)=O)cc2)=C(c2cccc(F)c2)C1=O`, the inhibition in vivo at 3 mg/kg in data set [16] was determined as 47%; in data set [17], 36%. Besides, the ED50 in data set [18] was determined as 0.008 mg/kg/day. In [19], the UI amounted to 1.5. Also, in data set [20], the IC50 was 0.00832 µM.
For `CC(C)Cc1ccc(C(C)C(=O)O)cc1` (centres undefined) [IBUPROFEN], the UI in data set [21] turned out to be 0.9.
Regarding `CC1C=C(c2ccc(Cl)c(Cl)c2)C(=O)O1` (centres undefined), the MIC in data set [22] was 7.81 µM (≈ 1.9 µg/mL); in data set [23] it was 7.6 µg/mL (≈ 31.3 µM); in data set [24], 31.2 µM (≈ 7.6 µg/mL); in data set [25], 31.2 µM (≈ 7.6 µg/mL); in [26], more than 125 µM; in data set [27], 7.6 µg/mL (≈ 31.3 µM). Further, the MIC in data set [28] was more than 125 µM; in [29] it was 31.2 µM (≈ 7.6 µg/mL); in data set [30], 7.87 µM (≈ 1.91 µg/mL); in data set [31], more than 125 µM.
On to `O=C1OC(c2cccc(O)c2O)C(c2ccccc2)=C1O` (centres undefined), for which the IC50 stood at 10.3 µM in data set [32], 129 µM in data set [33] and 187 µM in [34].
On to `CC1=C(O)C(=O)CO1`, for which, in data set [35], the IC50 is 50 µM.
As for `CS(=O)(=O)c1ccc(C2=C(c3ccc(F)c(F)c3)C(=O)OC2)cc1`, the ED50 in [36] came to 0.5 mg/kg. Moreover, the IC50 in data set [37] is 0.6 µM; in data set [38], 2.8 µM.
In data set [39], `CC(C)(C)C(=O)OC(CCCCCCCCCCCCC(OC(=O)C(C)(C)C)C1=CC(=O)OC1OC(=O)Nc1ccccc1)C1=CC(=O)OC1OC(=O)Nc1ccccc1` (centres undefined) showed an IC50 of more than 1 µM.
